Test results: ChEMBL document CHEMBL3885881, “DrugMatrix”

Species on record: Rattus norvegicus
Assay: DrugMatrix - Regimen: Daily Repeat
Format: toxicity, organism-based, Sprague-Dawley
Set-up: regimen Daily Repeat, gender Male, age 6-8 weeks
Conditions: in vivo, po, 17 mg/kg, route oral GAVAGE, dose level High, vehicle .5 % CMC; for ABSOLUTE BASOPHIL / ABSOLUTE EOSINOPHIL / ABSOLUTE LYMPHOCYTE / ABSOLUTE MONOCYTE / ABSOLUTE SEGMENTED NEUTROPHIL / BASOPHIL / EOSINOPHIL / ERYTHROCYTE COUNT / HEMATOCRIT / HEMOGLOBIN / LEUKOCYTE COUNT / LYMPHOCYTE / MEAN CORPUSCULAR HEMOGLOBIN / MEAN CORPUSCULAR HEMOGLOBIN CONCENTRATION / MONOCYTE / NEUTROPHIL / NUCLEATED RED BLOOD CELLS / PLATELET COUNT: tissue Blood
[1] = 72 h, tissue Plasma, time 3 day
[2] = 96 h, tissue Plasma, time 4 day

Which “ABSOLUTE BASOPHIL” value (72 h, time 3 day) does the source give for `O=C(Nc1c(Cl)cncc1Cl)c1ccc(OC(F)F)c(OCC2CC2)c1` [ROFLUMILAST] here?
The value was 0 CELLS/uL.

What about the “ABSOLUTE EOSINOPHIL” value (72 h, time 3 day) of the same compound?
The value was 460.33 CELLS/uL.

And the “ABSOLUTE LYMPHOCYTE” value (72 h, time 3 day)?
Its value is 8656.33 CELLS/uL.

And the “ABSOLUTE MONOCYTE” value (72 h, time 3 day)?
Its value is 1347.33 CELLS/uL.

And the “ABSOLUTE SEGMENTED NEUTROPHIL” value (72 h, time 3 day)?
The value was 10002.67 CELLS/uL.

And the BASOPHIL (72 h, time 3 day)?
Its BASOPHIL is 0%.

And the EOSINOPHIL (72 h, time 3 day)?
The EOSINOPHIL was 2.33%.

What about the “ERYTHROCYTE COUNT” value (72 h, time 3 day) of the same compound?
Its value is 6.23 x10E6/uL.

And the HEMATOCRIT (72 h, time 3 day)?
The HEMATOCRIT was 37.23%.

And the HEMOGLOBIN (72 h, time 3 day)?
Its HEMOGLOBIN is 13.5 G/DL.

What about the “LEUKOCYTE COUNT” value (72 h, time 3 day) of the same compound?
Its value is 20.47 x10E3/uL.

And the LYMPHOCYTE (72 h, time 3 day)?
The LYMPHOCYTE was 42.67%.

What about the “MEAN CORPUSCULAR HEMOGLOBIN” value (72 h, time 3 day) of the same compound?
Its value is 21.7 pg.

And the “MEAN CORPUSCULAR HEMOGLOBIN CONCENTRATION” value (72 h, time 3 day)?
Its value is 36.27 G/DL.

What about the MONOCYTE (72 h, time 3 day) of the same compound?
Its MONOCYTE is 6.33%.

What about the NEUTROPHIL (72 h, time 3 day) of the same compound?
The NEUTROPHIL was 48.67%.

And the “NUCLEATED RED BLOOD CELLS” value (72 h, time 3 day)?
The value was 0 /100WBC.

What about the “PLATELET COUNT” value (72 h, time 3 day) of the same compound?
The value was 1131 x10E3/uL.

What about the “ALANINE AMINOTRANSFERASE” value [1] of the same compound?
The value was 18 u/L.

What about the ALBUMIN [1] of the same compound?
The ALBUMIN was 3.07 G/DL.

And the “ALKALINE PHOSPHATASE” value [1]?
The value was 189.33 u/L.

And the “ASPARTATE AMINOTRANSFERASE” value [1]?
The value was 63 u/L.

What about the “BLOOD UREA NITROGEN” value [1] of the same compound?
Its value is 17.33 mg/dL.

What about the “CARBON DIOXIDE” value [1] of the same compound?
The value was 28.33 mmol/L.

And the CHLORIDE [1]?
The CHLORIDE was 97.33 MEQ/L.

And the CHOLESTEROL [1]?
Its CHOLESTEROL is 61 mg/dL.

What about the CREATININE [1] of the same compound?
Its CREATININE is 0.15 mg/dL.

What about the GLUCOSE [1] of the same compound?
The GLUCOSE was 131.67 mg/dL.

What about the “LACTATE DEHYDROGENASE” value [1] of the same compound?
The value was 149.67 u/L.

What about the LIPASE [1] of the same compound?
The LIPASE was 8.33 u/L.

And the PHOSPHORUS [1]?
The PHOSPHORUS was 10.43 mg/dL.

What about the POTASSIUM [1] of the same compound?
The POTASSIUM was 4.72 MEQ/L.

What about the SODIUM [1] of the same compound?
The SODIUM was 144.73 MEQ/L.

What about the “TOTAL BILIRUBIN” value [1] of the same compound?
The value was 0.1 mg/dL.

What about the “TOTAL PROTEIN” value [1] of the same compound?
The value was 6.4 G/DL.

And the “URIC ACID” value [1]?
Its value is 1.37 mg/dL.

And the “ABSOLUTE BASOPHIL” value (96 h, time 4 day)?
Its value is 0 CELLS/uL.

What about the “ABSOLUTE EOSINOPHIL” value (96 h, time 4 day) of the same compound?
The value was 0 CELLS/uL.

What about the “ABSOLUTE LYMPHOCYTE” value (96 h, time 4 day) of the same compound?
The value was 3924 CELLS/uL.

What about the “ABSOLUTE MONOCYTE” value (96 h, time 4 day) of the same compound?
Its value is 981 CELLS/uL.

What about the “ABSOLUTE SEGMENTED NEUTROPHIL” value (96 h, time 4 day) of the same compound?
The value was 16695 CELLS/uL.

What about the BASOPHIL (96 h, time 4 day) of the same compound?
Its BASOPHIL is 0%.

What about the EOSINOPHIL (96 h, time 4 day) of the same compound?
Its EOSINOPHIL is 0%.

And the “ERYTHROCYTE COUNT” value (96 h, time 4 day)?
The value was 6.21 x10E6/uL.

And the HEMATOCRIT (96 h, time 4 day)?
Its HEMATOCRIT is 36.1%.

What about the HEMOGLOBIN (96 h, time 4 day) of the same compound?
Its HEMOGLOBIN is 13.4 G/DL.

What about the “LEUKOCYTE COUNT” value (96 h, time 4 day) of the same compound?
The value was 21.6 x10E3/uL.

And the LYMPHOCYTE (96 h, time 4 day)?
Its LYMPHOCYTE is 18%.

What about the “MEAN CORPUSCULAR HEMOGLOBIN” value (96 h, time 4 day) of the same compound?
The value was 21.6 pg.

And the “MEAN CORPUSCULAR HEMOGLOBIN CONCENTRATION” value (96 h, time 4 day)?
The value was 37.15 G/DL.

What about the MONOCYTE (96 h, time 4 day) of the same compound?
Its MONOCYTE is 4.5%.

And the NEUTROPHIL (96 h, time 4 day)?
The NEUTROPHIL was 77.5%.

What about the “NUCLEATED RED BLOOD CELLS” value (96 h, time 4 day) of the same compound?
The value was 0 /100WBC.

What about the “PLATELET COUNT” value (96 h, time 4 day) of the same compound?
The value was 1458.5 x10E3/uL.

And the “ALANINE AMINOTRANSFERASE” value [2]?
The value was 19 u/L.

And the ALBUMIN [2]?
The ALBUMIN was 2.45 G/DL.

And the “ALKALINE PHOSPHATASE” value [2]?
The value was 153.5 u/L.

And the “ASPARTATE AMINOTRANSFERASE” value [2]?
The value was 51.5 u/L.

What about the “BLOOD UREA NITROGEN” value [2] of the same compound?
Its value is 24 mg/dL.

What about the “CARBON DIOXIDE” value [2] of the same compound?
Its value is 32 mmol/L.

What about the CHLORIDE [2] of the same compound?
The CHLORIDE was 96.5 MEQ/L.

What about the CHOLESTEROL [2] of the same compound?
The CHOLESTEROL was 50.5 mg/dL.

What about the CREATININE [2] of the same compound?
Its CREATININE is 0.16 mg/dL.

And the GLUCOSE [2]?
The GLUCOSE was 112.5 mg/dL.

And the “LACTATE DEHYDROGENASE” value [2]?
The value was 173 u/L.

And the LIPASE [2]?
Its LIPASE is 7.5 u/L.

And the PHOSPHORUS [2]?
Its PHOSPHORUS is 10.1 mg/dL.

And the POTASSIUM [2]?
The POTASSIUM was 5.21 MEQ/L.

And the SODIUM [2]?
The SODIUM was 143.95 MEQ/L.

And the “TOTAL BILIRUBIN” value [2]?
The value was 0.15 mg/dL.

And the “TOTAL PROTEIN” value [2]?
The value was 6 G/DL.
